Ki data for 6 compounds are collected here from US7723325B2, “5-amido-indole-2-carboxamide derivatives” (Hoffman-La Roche Inc., priority 2006, dated 2010).

This assay deals with T1, histamine 3 receptor (H3R) (Homo sapiens, UniProt Q9Y5N1).
T1 construct: expressed in transfected cells; host or cells: CHO
T1 sequence (Q9Y5N1 whole entry): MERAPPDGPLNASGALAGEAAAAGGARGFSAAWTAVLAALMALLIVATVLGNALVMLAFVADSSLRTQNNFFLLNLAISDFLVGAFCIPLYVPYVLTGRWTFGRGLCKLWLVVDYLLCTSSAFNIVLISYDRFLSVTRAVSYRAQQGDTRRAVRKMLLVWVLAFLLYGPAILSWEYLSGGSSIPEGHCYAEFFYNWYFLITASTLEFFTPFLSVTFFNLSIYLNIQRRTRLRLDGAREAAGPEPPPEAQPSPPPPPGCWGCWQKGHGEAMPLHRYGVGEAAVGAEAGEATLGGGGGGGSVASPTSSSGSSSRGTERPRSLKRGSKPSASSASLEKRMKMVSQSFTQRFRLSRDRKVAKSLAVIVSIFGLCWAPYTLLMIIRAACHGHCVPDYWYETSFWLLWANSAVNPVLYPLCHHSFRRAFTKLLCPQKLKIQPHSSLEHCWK
Kind of assay: Binding assay with 3H-(R)α-Methylhistamine (competition binding, HR3-CHO membranes). Conditions: competition binding vs 3H(R)α-Methylhistamine (1 nM), membrane of the human HR3-CHO cell line; Ki calculated from IC50 (Cheng-Prusoff). On the procedure:
Binding Assay with ^3H—(R)α-Methylhistamine
Saturation binding experiments were performed using HR3-CHO membranes prepared as described in Takahashi, K, Tokita, S., Kotani, H. (2003) J. Pharmacol. Exp. Therapeutics 307, 213-218.
An appropriate amount of membrane (60 to 80 μg protein/well) was incubated with increasing concentrations of ^3H(R)α-Methylhistamine di-hydrochloride (0.10 to 10 nM). Non specific binding was determined using a 200 fold excess of cold (R)α-Methylhistamine dihydrobromide (500 nM final concentration). The incubation was carried out at room temperature (in deep-well plates shaking for three hours). The final volume in each well was 250 μl. The incubation was followed by rapid filtration on GF/B filters (pre-soaked with 100 μl of 0.5% PEI in Tris 50 mM shaking at 200 rpm for two hours). The filtration was made using a cell-harvester and the filter plates were then washed five times with ice cold washing buffer containing 0.5 M NaCl. After harvesting, the plates were dried at 55° C. for 60 min, then we added scintillation fluid (Microscint 40, 40 microl in each well) and the amount of radioactivity on the filter was determined in Packard top-counter after shaking the plates for two hours at 200 rpm at room temperature.
Binding Buffer: 50 mM Tris-HCl pH 7.4 and 5 mM MgCl2x6H2O pH 7.4. Washing Buffer: 50 mM Tris-HCl pH 7.4 and 5 mM MgCl2x6H2O and 0.5 M NaCl pH 7.4.
Indirect measurement of affinity of H3R inverse agonists: twelve increasing concentrations (ranging from 10 μM to 0.3 nM) of the selected compounds were always tested in competition binding experiments using membrane of the human HR3-CHO cell line. An appropriate amount of protein, e.g. approximately 500 cpm binding of RAMH at Kd, were incubated for 1 hour at room temperature in 250 μl final volume in 96-well plates in presence of ^3H(R)α-Methylhistamine (1 nM final concentration=Kd). Non-specific binding was determined using a 200 fold excess of cold (R)α-Methylhistamine dihydrobromide.
All compounds were tested at a single concentration in duplicates. […] Ki's were calculated from IC50 based on Cheng-Prusoff equation (Cheng, Y, Prusoff, W H (1973) Biochem Pharmacol 22, 3099-3108).
What is called Ki is a dissociation constant, usually derived from enzyme kinetics or from competition with a known ligand. As to `CC(C)N1CCCN(C(=O)c2ccc3[nH]c(C(=O)N4CCS(=O)(=O)CC4)cc3c2)CC1` [Example 245, (1,1-Dioxo-thiomorpholin-4-yl)-[5-(4-isopropyl-[1,4]diazepane-1-carbonyl)-1H-indol-2-yl]-methanone], the Ki is 41 nM. In the case of `O=C(c1ccc2[nH]c(C(=O)N3CCCCC3)cc2c1)N1CCN(C2CCCC2)CC1` [Example 5, [5-(4-Cyclopentyl-piperazine-1-carbonyl)-1H-indol-2-yl]-piperidin-1-yl-methanone] it was 28.7 nM; in that of `COc1cccc(-n2c(C(=O)N3CCC(F)(F)CC3)cc3cc(C(=O)N4CCN(C5CCCC5)CC4)ccc32)c1` [Example 84, [5-(4-Cyclopentyl-piperazine-1-carbonyl)-1-(3-methoxy-phenyl)-1H-indol-2-yl]-(4,4-difluoro-piperidin-1-yl)-methanone], 35.6 nM. As for `CC(C)N1CCN(C(=O)c2ccc3c(c2)cc(C(=O)N2CCS(=O)(=O)CC2)n3-c2cccc(Cl)c2)CC1` [Example 97, [1-(3-Chloro-phenyl)-5-(4-isopropyl-piperazine-1-carbonyl)-1H-indol-2-yl]-(1,1-dioxo-thiomorpholin-4-yl)-methanone], the figure is 13.4 nM; as for `CC(C)N1CCN(C(=O)c2ccc3c(c2)cc(C(=O)N2CCC(F)(F)CC2)n3C2CCC2)CC1` [Example 150, [1-Cyclobutyl-2-(4,4-difluoro-piperidine-1-carbonyl)-1H-indol-5-yl]-(4-isopropyl-piperazin-1-yl)-methanone], 25.2 nM; as for `CC(C)N1CCN(C(=O)c2ccc3c(c2)cc(C(=O)N2CCS(=O)(=O)CC2)n3-c2ccc(S(C)(=O)=O)cc2)CC1` [Example 221, (1,1-Dioxothiomorpholin-4-yl)-[5-(4-isopropyl-piperazine-1-carbonyl)-1-(4-methanesulfonyl-phenyl)-1H-indol-2-yl]-methanone], 22.6 nM.
